Test: Metribuzin solubility in salt solutions
Format: physicochemical
Conditions: ammonium sulfate, ammonium acetate and potassium citrate tribasic monohydrate solutions; FIG. 1
Description: Metribuzin is partially soluble in water. Because of its partial solubility metribuzin grows crystals in aqueous solutions. It is a discovery of the present invention that, if water solubility of metribuzin is lowered, then crystal growth is inhibited or reduced. To determine if salts could lower the water solubility of metribuzin, metribuzin was added to the saturation point to several concentrations of ammonium sulfate, ammonium acetate and potassium citrate tribasic monohydrate solutions. Results can be seen in FIG. 1.

CSc1nnc(C(C)(C)C)c(=O)n1N [metribuzin, Metribuzin]
water solubility of metribuzin versus salt concentration: negatively correlated

Reference: US12708113B2, “Herbicidal compositions and methods of use thereof” (Valent U.S.A. LLC, priority 2018, dated 2026)
